Experimental data taken from PMC10666548, “Identification of the bacterial metabolite aerugine as potential trigger of human dopaminergic neurodegeneration” (Environment international, 2023).

What was measured:
[1] = system: GABA neurons of C. elegans Punc-25; test: C. elegans GABA neuron degeneration scoring (GFP-labelled neurons); format: in vivo, Caenorhabditis elegans; details: 48 h exposure
Description: The strain BY200 Pdat-1::gfp (vtIs1), dat-1::GFP(vtls1) was kindly provided by the Blakely laboratory, Vanderbilt University Medical Center and the strain Punc-25:GFP was obtained from the Caenorhabditis Genetics Center (CGC, University of Minnesota, Minneapolis, MN, USA). The worms were maintained in nematode growth medium (NGM) plates that contain: 3 g/l NaCl, 17 g/l agar, 2.5 g/l peptone, 1 mM CaCl2, 5 mg/l cholesterol, 1 mM MgSO4, 25 mM potassium phosphate buffer (pH 6.0) with 1.25 ml nystatin and 50 mg/l streptomycin sulfate) and Escherichia coli (E. coli) OP50 strain was used as food ([Brenner, 1974]). […]
On day 2 and day 8, approximately, 20–30 worms per treatment were picked onto slides prepped with a 3% agarose pad, anesthetized with 5 μl of 3 mM levamisole hydrochloride ([Sulston et al., 1975]) and observed under an Olympus BX41 fluorescence microscope to determine morphology status according to novel Likert-like scale of degeneration as previously described ([Benedetto et al., 2010]).
Fig. 5. […] They were exposed to different aerugine concentrations and counted every 24 h. […] Differences on a given day were analyzed by ANOVA and found to be non-significant. […] The GFP-labelled neurons of 20–30 worms per condition were analyzed and scored for specific neurodegeneration. […] These scores were assessed to quantify the dopaminergic neurodegeneration caused be aerugine in vivo. […]

[2] = Cytotoxicity to proliferating (d0) LUHMES cells, calcein-AM & H-33342 imaging; format: cell-based; details: human, proliferating LUHMES d0, 24 h exposure, read-out: EC50 (half-maximal cytotoxic potency), cell viability
Description: LUHMES cells were cultivated as described previously ([Krug et al., 2013]; [Schildknecht et al., 2013]; [Scholz et al., 2011]). In brief, cells were grown in standard cell culture flasks pre-coated with 50 μg/ml PLO and 1 μg/ml fibronectin in water for at least 3 h at 37 °C. The maintenance culture was kept in proliferation medium consisting of advanced DMEM/F12 with 2 mM L-glutamine, 1x N2-supplement, and 40 ng/ml FGF-2. The cells were incubated at 37 °C with 5% CO2 and passaged trice a week when reaching 75–90% confluence. They were used up to passage 18. […]
Neurite area (NA) and viability (V) were assessed as described previously ([Stiegler et al., 2011]). […] Image acquisition was performed using an Array-Scan VTI HCS Reader (Cellomics, PA, USA) equipped with a Hamamatsu ORCA-ER camera. […]
Nuclei were identified in channel 1 depending on intensity, area, size and shape. […] The NA was automatically calculated by excluding the VCSAs from the VCSs. […]
Fig. 3. […] The cell viability was assessed 24 h later by calcein-AM & H-33342 staining and high content imaging. […] The overall cell viability was assessed by measuring resazurin reduction in technical triplicates. […] The cell viability was assessed 24 h later by calcein-AM & H-33342 staining and high content imaging. […]

Structure (SMILES): OCC1CSC(c2ccccc2O)=N1 (centres unmarked) [aerugine, 2-[4-(hydroxymethyl)-4,5-dihydro-1,3-thiazol-2-yl]phenol]
- degeneration of GABA neurons [1]: not affected
- EC50 at 24 h [2]: 13 ± 0.2 µM
